Source: patent publication US7595336B2, “Isatine derivatives with neurotrophic activity” (Neurosearch A/S, priority 2002, dated 2009)

Legend:
PC12 cells [1] = assay: Survival of differentiated PC12 cells in serum-free medium (MTS); assay type: cell-based; settings: for Survival Effects on Differentiated PC12 Cells in Serum-free Medium (% of 3 nM NGF): 4 days incubation, MTS; for Rescue of PC12 cells in serum-free medium: viability as reduction of MTS
Experimental: In this experiment the protective effect of the compounds on the survival of the pheochromocytoma cell line PC12 deprived of other survival factors were assessed following differentiation of the cells to a neuron-like phenotype.
Cells were seeded in collagen coated 96 well plates at a cell density of 8,000/cm^2 in DMEM with 7.5% Foetal Calf Serum (FCS), 7.5% Donor Horse Serum (DHS) and 2 nM NGF and cultured for 6 days. The medium was then changed to DMEM without serum supplemented with the compound in the indicated concentrations. As a positive control, parallel wells receiving serum-free DMEM without addition of vehicle […] 3 nM NGF were included.
After 4 days of incubation, cell viability was evaluated by using MTS (3-(4,5-dimethylthiazol-2-yl)-5-(3-carboxymethoxyphenyl)-2-(4-sulfonyl)2H-tetrazolium) which is reduced by metabolically active cells. Data are expressed as % of the response seen with 3 nM NGF corrected for residual MTS reduction activity in the parallel serum-free cultures (“% of NGF control”).

PC12 cells [2] = settings: two days
Experimental: In this experiment the ability of the compounds to potentiate NGF-induced neurite outgrowth in PC12 cells was assessed.
PC12 cells were seeded in tissue culture plates coated with collagen at a cell density of 15,000/cm^2 in DMEM with 7.5% FCS and 7.5% DHS. Next day the medium was changed to medium supplemented with the NS compound in the absence or presence of NGF.
Two days after the medium change, cells were fixed in 4% paraformaldehyde and stained for neurofilament. Cells were fixed by in tissue culture plates by incubation in 4% paraformaldehyde in PBS followed permeabilization in 0.05% Triton-X100 in the presence of 10% DHS to block non-specific binding sites. After washing, the plates were incubated with anti-neurofilament (NF) antibody (clone RT97) from Boehringer diluted 1:200 in 0.05% Triton-X100/10% DHS followed by incubation with biotinylated anti-mouse immunoglobulin RPN1001 (Amersham) diluted 1:200. NF-immunoreactive cells were stained using the ABC-complex/HRP kit K0355 (DAKO) and 3,3-diaminobenzidine tetrahydrochloride (DAB) as substrate.
Estimation of total cell number per well, as well as the total neurite length was done using unbiasedly 2D stereology (CAST-grid system connected to a Olympus BH-2 microscope).

the ERKs (ERK1 and ERK2) = settings: 1-3 μM; PC12 cells; 24 hours with NGF
Experimental: (§1) Approximately 200,000 PC12 cells were plated in a 24 well plate in DMEM with 7.5% FCS and 7.5% DHS and incubated ON.
(§2) Total cell lysate was electrophoresed on 8-18% gradient SDS gels which were electroblotted to PVDF membranes. Phosphorylated ERK1 and ERK2 were immunodetected by using mouse anti-Phospho-p44/p42 MAP kinase E10 mAb (New England Biolabs #9106) and HRP-linked anti-mouse antibody. Phosphorylated Akt kinase was immunodetected by using rabbit phospho-specific Akt (Ser473) antibody (New England Biolabs # 9271) and HRP-linked anti-rabbit antibody. Bands were detected by chemilumininescence using the ECL system (Amersham).

Akt kinase = settings: 1-3 μM; PC12 cells; 24 hours with NGF
Experimental: as §1, §2

CREB = settings: after 5 minutes stimulation (not shown)
Experimental: The cyclic AMP-responsive element binding protein (CREB) is a post-translationally activated transcription factor that has been implicated in numerous neuronal functions including cell survival, differentiation and neurotransmission.
Approximately 7.5×10^5 PC12 cells per well were plated in collagen coated 6-well plates in DMEM with 0.75% FCS and 0.75% DHS and incubated for 48 hours. Cells were then further starved for 2 hours in serum free DMEM before stimulation with the indicated compounds for 5, 10 or 20 minutes. Cells were harvested in 1× heated sample buffer (2% SDS, 400 mM Tris, pH 8.0, 10 mM DTT and 0.25 mM Na3VO4) and the cell lysates were electrophoresed on 8-18% gradient SDS gels, which were electroblotted to PVDF membranes.
Phosphorylated CREB were immunodetected by using rabbit anti-Phospho-CREB (UpState Biotechnology #06-519) followed by HRP-linked anti-rabbit antibody (Amersham Life Science #NA 934). Bands were detected by chemilumininescence using the ECL system (Amersham).

[3] = test system: dopaminergic neurons from pig E28 ventral mesencephali; settings: 1 μM; E28 pig VM slice cultures; 21 days in vitro
Experimental: Ventral mesencephali (VM) were isolated from porcine embryos (E28) under sterile conditions, chopped into 400 μm slices and placed in chilled Gey's balanced salt solution (GIBCO) with glucose (6.5 mg/ml).
In brief, slices were placed on semiporous membranes (Millipore, 0.3 μm; 4 slices/membrane) placed as inserts in 6-well plates (Costar) with serum containing medium (Gibco BRL). Each well contained 1 ml medium (50% Optimem, 25% horse serum, 25% Hank's balanced salt solution (all GIBCO)) supplemented with D-glucose to a final concentration of 25 mM.
At day 3, the medium was replaced by defined serum-free medium (Neurobasal medium with B27 supplement from Life Technologies). The cultures were grown in an incubator with 5% CO2 at 36° C. for 21 days after which the sections were immunostained for TH as described in Example 4. […] Untreated cultures served as controls. The medium was changed twice a week and antimitotics and antibiotics were not used at any stage.
The area of the culture slice was delineated and a counting frame was randomly placed to mark the first area to be sampled.

[4] = test system: dopaminergic neurons from rat E14 ventral mesencephali; settings: 1 μM; E14 rat VM; 7 days in culture
Experimental: Embryonic rat brains (Wistar; E14) were isolated under sterile conditions placed in chilled Gey's balanced salt solution (GIBCO) with glucose (6.5 mg/ml).
The ventral mesencephali were dissected out, cut into small tissue pieces, placed in Neurobasal medium with B27 supplement and gently pressed through a 80 μm Nitex filter. The cells were counted using a hemocytometer and plated in a 6 well multi-dish at a density of approximately 2.0×10^6 cells/well. Culture dishes were pre-coated with poly-D-lysine.
After 1 hour, the medium was removed and fresh medium added (1.5 ml/well). […] Untreated cultures served as controls. The medium was changed every other day and antimitotics and antibiotics were not used at any stage.
After 7 days in culture, cultures were then immunostained for tyrosine hydroxylase (TH). Briefly, the cells were washed in 0.05M tris-buffered saline (TBS, pH 7.4) containing 1% Triton X-100 for 3×15 minutes and incubated with 10% foetal bovine serum (FBS, Life Technologies) in TBS for 30 minutes. The cells were then incubated for 24 hours at 4° C. with monoclonal mouse anti-TH antibody (Boehringer Mannheim) diluted 1:600 in TBS with 10% FBS. After rinsing in TBS with 1% Triton X-100 for 3×15 minutes, cells were incubated for 60 minutes with biotinylated anti-mouse IgG antibody (Amersham) diluted 1:200 in TBS with 10% FBS. […] TH-immunoreactive (ir) cells were counted manually.

[5] = test system: transient global ischaemia in gerbils (hippocampal CA1-layer damage); settings: gerbil; 4 minutes ischaemia; 2×30 mg/kg ip. after the insult; four days later
Experimental: Gerbils were anaesthetised with halothane, right and left carotid arteries located and occluded for 4 minutes. Animals were kept at normal body temperature before and after the operation using heating lamps. During the operation, the gerbils were placed on heating pads, the body temperature was controlled and maintained at 37±0.5° C.
Four days later, the animals were sacrificed, brains removed and cooled to −70° C. Thereafter, the brains were sectioned in 20 μm thick sections of which 5-7 with hippocampal tissue were selected and stained with hematoxylin-eosin.
The degree of hippocampal damage was categorised into one of four groups:
Group 1: no damage in the CA1-layer;
Group 2: the CA1-layer partly damaged;
Group 3: the CA1-layer completely damaged; and
Group 4: damage in more then just the CA1-layer. The total ischaemia score was obtained as the sum of scores in the right- and left hemisphere. Kendall's tau test was used for statistic evaluation.

| SMILES | Survival Effects on Differentiated PC12 Cells in Serum-free Medium (% of 3 nM NGF) (PC12 cells [1]; 0.1 μM) | Survival Effects on Differentiated PC12 Cells in Serum-free Medium (% of 3 nM NGF) (PC12 cells [1]; 0.2 μM) | Survival Effects on Differentiated PC12 Cells in Serum-free Medium (% of 3 nM NGF) (PC12 cells [1]; 0.5 μM) | Survival Effects on Differentiated PC12 Cells in Serum-free Medium (% of 3 nM NGF) (PC12 cells [1]; 0.75 μM) | Survival Effects on Differentiated PC12 Cells in Serum-free Medium (% of 3 nM NGF) (PC12 cells [1]; 1 μM) | Survival Effects on Differentiated PC12 Cells in Serum-free Medium (% of 3 nM NGF) (PC12 cells [1]; 2 μM) | Survival Effects on Differentiated PC12 Cells in Serum-free Medium (% of 3 nM NGF) (PC12 cells [1]; 5 μM) | Survival Effects on Differentiated PC12 Cells in Serum-free Medium (% of 3 nM NGF) (PC12 cells [1]; 7.5 μM) | Survival Effects on Differentiated PC12 Cells in Serum-free Medium (% of 3 nM NGF) (PC12 cells [1]; 10 μM) | Rescue of PC12 cells in serum-free medium (PC12 cells [1]) | Effect on neurite outgrowth in PC12 cells, compound alone (PC12 cells [2]; 1 and 3 μM, without NGF) | Potentiation of NGF-induced neurite outgrowth in PC12 cells (PC12 cells [2]; with NGF) | Effect on NGF-induced phosphorylation of the ERKs (the ERKs (ERK1 and ERK2)) | Effect on NGF-induced phosphorylation of the Akt kinase (Akt kinase) | Combined effect of NGF and compound on CREB phosphorylation (CREB) | More TH-immunoreactive cells compared to untreated control cultures [3] | More TH-immunoreactive cells compared to untreated control cultures [4] | Animals with no or only partially damage in the CA1 neurons of the hippocampus [5] |
| --- | --- | --- | --- | --- | --- | --- | --- | --- | --- | --- | --- | --- | --- | --- | --- | --- | --- | --- |
| CN1CCc2c(-c3ccc(Cl)cc3)cc3c(c2C1)NC(=O)C3=NO.Cl [Compound G-1, 5-(4-Chlorophenyl)-8-methyl-6,7,8,9-tetrahydro-1-H-pyrrolo[3.2-h]isoquinoline-2,3-dione-3-oxime hydrochloric acid salt] | 11.09 ± 1.42 % of 3 nM NGF | 12.78 ± 2.01 % of 3 nM NGF | 28.62 ± 1.77 % of 3 nM NGF | 32.05 ± 3.36 % of 3 nM NGF | 52.60 ± 3.40 % of 3 nM NGF | 60.47 ± 2.26 % of 3 nM NGF | 74.85 ± 4.67 % of 3 nM NGF | 62.08 ± 3.70 % of 3 nM NGF | 63.80 ± 4.09 % of 3 nM NGF | dose-dependent rescue | some effect on neurite outgrowth | significantly potentiate NGF-induced neurite outgrowth | potentiate NGF-induced phosphorylation | potentiate NGF-induced phosphorylation | additive effect | 37% | 81% | – |
| Cl.O=C1Nc2c(cc(-c3ccc(Cl)cc3)c3c2CCCC3)C1=NO [Compound G-2, 5-(4-Chlorophenyl)-6,7,8,9-tetrahydro-1-H-pyrrolo[3.2-h]naphthalene-2,3-dione-3-oxime hydrochloric acid salt] | 7.77 ± 1.86 % of 3 nM NGF | 16.58 ± 4.36 % of 3 nM NGF | 17.30 ± 4.43 % of 3 nM NGF | 23.54 ± 1.60 % of 3 nM NGF | 27.63 ± 6.91 % of 3 nM NGF | 33.31 ± 5.22 % of 3 nM NGF | 50.25 ± 4.28 % of 3 nM NGF | 54.83 ± 4.37 % of 3 nM NGF | 74.66 ± 5.70 % of 3 nM NGF | dose-dependent rescue | – | – | – | – | – | – | – | ≈ 50% |
| O=C1Nc2ccc(-c3ccc(Cl)cc3)cc2C1=NO [Compound G-3, 5-(4-Chlorophenyl)isatin-3-oxime] | −0.34 ± 1.59 % of 3 nM NGF | 23.83 ± 3.61 % of 3 nM NGF | 28.20 ± 2.55 % of 3 nM NGF | 30.66 ± 3.83 % of 3 nM NGF | 36.11 ± 3.02 % of 3 nM NGF | 41.53 ± 3.00 % of 3 nM NGF | 49.63 ± 4.67 % of 3 nM NGF | 67.60 ± 5.54 % of 3 nM NGF | 72.23 ± 4.34 % of 3 nM NGF | dose-dependent rescue | – | – | – | – | – | – | – | – |
